# Data: patent publication EP1953147A1, “HETEROCYCLIC COMPOUND AND MEDICINAL APPLICATION THEREOF” (priority 2005, dated 2007)
# Structures can show the parent of a compound that is named as a salt.
# System: ΔG/SEAP/HCV E1E2
# Experiment: Effect of test substance on cell infection with HCV pseudotype virus (SEAP reporter assay in HepG2 cells)
# Assay type: cell-based
# Settings: Hepatitis C virus
row,SMILES,IC50 [nM]
1,"O=c1c2c(c(-c3ccsc3)nn1-c1cc(N3CC[C@H](O)C3)ccc1C(F)(F)F)CCC2 [Example 158, 2-[5-((S)-3-hydroxy-pyrrolidin-1-yl)-2-trifluoromethyl-phenyl]-4-thiophen-3-yl-2,5,6,7-tetrahydro-cyclopenta[d]pyridazin-1-one]",100 to 10000
2,"COc1cc(OC)cc(-c2nn(-c3cc(NCCO)ccc3C(F)(F)F)c(=O)c3c2CCC3)c1 [Example 91, 4-(3,5-dimethoxy-phenyl)-2-[5-(2-hydroxy-ethylamino)-2-trifluoromethyl-phenyl]-2,5,6,7-tetrahydro-cyclopenta[d]pyridazin-1-one]",< 100
3,"COc1cc(OC)cc(-c2nn(-c3cc(N4CC[C@@H](O)C4)ccc3C(F)(F)F)c(=O)c3c2CCN3C(=O)OC(C)(C)C)c1 [Example 59, 4-(3,5-dimethoxy-phenyl)-6-[5-((R)-3-hydroxy-pyrrolidin-1-yl)-2-trifluoromethyl-phenyl]-7-oxo-2,3,6,7-tetrahydro-pyrrolo[2,3-d]pyridazine-1-carboxylic acid tert-butyl ester]",< 100
4,"COc1cc(OC)cc(-c2nn(-c3cc(N4CCCC4=O)ccc3C(F)(F)F)c(=O)c3c2CCC3)c1 [Example 150, 4-(3,5-dimethoxy-phenyl)-2-[5-(2-oxo-pyrrolidin-1-yl)-2-trifluoromethyl-phenyl]-2,5,6,7-tetrahydro-cyclopenta[d]pyridazin-1-one]",< 100
5,"COc1cc(OC)cc(-c2nn(-c3cc(N4CCC4)ccc3C(F)(F)F)c(=O)c3c2CCC3)c1 [Example 71, 2-(5-azetidin-1-yl-2-trifluoromethyl-phenyl)-4-(3,5-dimethoxy-phenyl)-2,5,6,7-tetrahydro-cyclopenta[d]pyridazin-1-one]",< 100
6,"COc1cncc(-c2nn(-c3cc(N4CC[C@H](O)C4)ccc3C(F)(F)F)c(=O)c3c2CCC3)c1 [Example 45, 2-[5-((S)-3-hydroxy-pyrrolidin-1-yl)-2-trifluoromethyl-phenyl]-4-(5-methoxy-pyridin-3-yl)-2,5,6,7-tetrahydro-cyclopenta[d]pyridazin-1-one]",< 100
7,"COc1cc(OC)cc(-c2nn(-c3cc(N4CC[C@H](O)C4)ccc3S(C)(=O)=O)c(=O)c3c2CCC3)c1 [Example 38, 4-(3,5-dimethoxy-phenyl)-2-[5-((S)-3-hydroxy-pyrrolidin-1-yl)-2-methanesulfonyl-phenyl]-2,5,6,7-tetrahydro-cyclopenta[d]pyridazin-1-one]",< 100
8,"CC(C)Cc1nn(-c2cc(N3CC[C@H](O)C3)ccc2C(F)(F)F)c(=O)c2c1CCC2 [Example 144, 2-[5-((S)-3-hydroxy-pyrrolidin-1-yl)-2-trifluoromethyl-phenyl]-4-isobutyl-2,5,6,7-tetrahydro-cyclopenta[d]pyridazin-1-one]",100 to 10000
9,"COc1cc(OC)cc(-c2nn(-c3cc(NC4CC4)ccc3C(F)(F)F)c(=O)c3c2CCC3)c1 [Example 140, 2-(5-cyclopropylamino-2-trifluoromethyl-phenyl)-4-(3,5-dimethoxy-phenyl)-2,5,6,7-tetrahydro-cyclopenta[d]pyridazin-1-one]",< 100
10,"COc1cc(OC)cc(-c2nn(-c3cccc(N4CC[C@H](O)C4)n3)c(=O)c3c2CCC3)c1 [Example 1-7, 4-(3,5-dimethoxy-phenyl)-2-[6-((S)-3-hydroxy-pyrrolidin-1-yl)-pyridin-2-yl]-2,5,6,7-tetrahydro-cyclopenta[d]pyridazin-1-one]",100 to 10000
11,"COc1cc(OC)cc(-c2nn(-c3cc(NCCC(=O)N(C)C)ccc3C(F)(F)F)c(=O)c3c2CCC3)c1 [Example 139, 3-{3-[4-(3,5-dimethoxy-phenyl)-1-oxo-1,5,6,7-tetrahydro-cyclopenta[d]pyridazin-2-yl]-4-trifluoromethyl-phenylamino}-N,N-dimethyl-propionamide]",< 100
12,"COc1cc(C)cc(-c2nn(-c3cc(-c4cccnn4)ccc3C(F)(F)F)c(=O)c3c2CCN3)c1 [Example 13, 4-(3-methoxy-5-methyl-phenyl)-6-(5-pyridazin-3-yl-2-trifluoromethyl-phenyl)-1,2,3,6-tetrahydro-pyrrolo[2,3-d]pyridazin-7-one]",< 100
13,"COc1cc(OC)cc(-c2nn(-c3cc(NCCCC(=O)N(C)C)ccc3C(F)(F)F)c(=O)c3c2CCC3)c1 [Example 154, 4-{3-[4-(3,5-dimethoxy-phenyl)-1-oxo-1,5,6,7-tetrahydro-cyclopenta[d]pyridazin-2-yl]-4-trifluoromethyl-phenylamino}-N,N-dimethyl-butyramide]",< 100
14,"COCCNC(=O)CN1CCc2c(-c3cc(OC)cc(OC)c3)nn(-c3cc(N4CC[C@H](O)C4)ccc3C(F)(F)F)c(=O)c21 [Example 36, 2-{4-(3,5-dimethoxy-phenyl)-6-[5-((S)-3-hydroxy-pyrrolidin-1-yl)-2-trifluoromethyl-phenyl]-7-oxo-2,3,6,7-tetrahydro-pyrrolo[2,3-d]pyridazin-1-yl}-N-(2-methoxy-ethyl)-acetamide]",< 100
15,"COc1cc(C)cc(-c2nn(-c3cc(N4CC[C@H](O)C4)ccc3C(F)(F)F)c(=O)c3c2CC(C)N3)c1 (stereo partly drawn) [Example 16, 6-[5-((S)-3-hydroxy-pyrrolidin-1-yl)-2-trifluoromethyl-phenyl]-4-(3-methoxy-5-methyl-phenyl)-2-methyl-1,2,3,6-tetrahydro-pyrrolo[2,3-d]pyridazin-7-one]",< 100
16,"O=c1c2c(c(-c3ccccc3O)nn1-c1cc(N3CC[C@H](O)C3)ccc1C(F)(F)F)CCC2 [Example 111, 4-(2-hydroxy-phenyl)-2-[5-((S)-3-hydroxy-pyrrolidin-1-yl)-2-trifluoromethyl-phenyl]-2,5,6,7-tetrahydro-cyclopenta[d]pyridazin-1-one]",100 to 10000
17,"COc1cc(OC)cc(-c2nn(-c3cc(N4CCOCC4)ccc3C(F)(F)F)c(=O)c3c2CCC3)c1 [Example 70, 4-(3,5-dimethoxy-phenyl)-2-(5-morpholin-4-yl-2-trifluoromethyl-phenyl)-2,5,6,7-tetrahydro-cyclopenta[d]pyridazin-1-one]",< 100
18,"Cc1cc(-c2cnco2)cc(-c2nn(-c3cc(-c4cccnn4)ccc3C(F)(F)F)c(=O)c3c2CC(C)N3)c1 (centres unmarked) [Example 5, 2-methyl-4-(3-methyl-5-oxazol-5-yl-phenyl)-6-(5-pyridazin-3-yl-2-trifluoromethyl-phenyl)-1,2,3,6-tetrahydro-pyrrolo[2,3-d]pyridazin-7-one]",< 100
19,"COc1cc(OC)cc(-c2nn(-c3ccc(N(C)C)cc3C(F)(F)F)c(=O)c3c2CCC3)c1 [Example 108, 4-(3,5-dimethoxy-phenyl)-2-(4-dimethylamino-2-trifluoromethyl-phenyl)-2,5,6,7-tetrahydro-cyclopenta[d]pyridazin-1-one]",100 to 10000
20,"O=c1c2c(c(C3CCCC3)nn1-c1cc(N3CC[C@H](O)C3)ccc1C(F)(F)F)CCC2 [Example 1-19, 4-cyclopentyl-2-[5-((S)-3-hydroxy-pyrrolidin-1-yl)-2-trifluoromethyl-phenyl]-2,5,6,7-tetrahydro-cyclopenta[d]pyridazin-1-one]",100 to 10000
21,"COc1cc(OC)cc(-c2nn(-c3cc(N4CCCC4)ccc3C(F)(F)F)c(=O)c3c2CCN3)c1 [Example 37, 4-(3,5-dimethoxy-phenyl)-6-(5-pyrrolidin-1-yl-2-trifluoromethyl-phenyl)-1,2,3,6-tetrahydro-pyrrolo[2,3-d]pyridazin-7-one]",< 100
22,"COc1cc(OC)cc(-c2nn(-c3cc(NCCN)ccc3C(F)(F)F)c(=O)c3c2CCC3)c1 [Example 119, 2-[5-(2-amino-ethylamino)-2-trifluoromethylphenyl]-4-(3,5-dimethoxy-phenyl)-2,5,6,7-tetrahydro-cyclopenta[d]pyridazin-1-one hydrochloride]",< 100
23,"COc1cc(OC)cc(-c2nn(-c3cc(N4CC[C@H](O)C4)ccc3C(F)(F)F)c(=O)c3c2CCN3Cc2ccccc2)c1 [Example 102, 1-benzyl-4-(3,5-dimethoxy-phenyl)-6-[5-((S)-3-hydroxy-pyrrolidin-1-yl)-2-trifluoromethyl-phenyl]-1,2,3,6-tetrahydro-pyrrolo[2,3-d]pyridazin-7-one]",< 100
24,"O=c1c2c(c(-c3ccc(Br)cc3)nn1-c1cc(N3CC[C@H](O)C3)ccc1C(F)(F)F)CCC2 [Example 90, 4-(4-bromo-phenyl)-2-[5-((S)-3-hydroxy-pyrrolidin-1-yl)-2-trifluoromethyl-phenyl]-2,5,6,7-tetrahydro-cyclopenta[d]pyridazin-1-one]",< 100
25,"COc1cc(OC)cc(-c2nn(-c3cc(N4CCC(=O)C4)ccc3C(F)(F)F)c(=O)c3c2CCN3)c1 [Example 25, 4-(3,5-dimethoxy-phenyl)-6-[5-(3-oxo-pyrrolidin-1-yl)-2-trifluoromethyl-phenyl]-1,2,3,6-tetrahydro-pyrrolo[2,3-d]pyridazin-7-one]",< 100
26,"COc1cc(OC)cc(-c2nn(-c3cc(N)ccc3C(F)(F)F)c(=O)c3c2CCN3CCO)c1 [Example 1-41, 6-(5-amino-2-trifluoromethyl-phenyl)-4-(3,5-dimethoxy-phenyl)-1-(2-hydroxy-ethyl)-1,2,3,6-tetrahydro-pyrrolo[2,3-d]pyridazin-7-one]",< 100
27,"Cc1cc(-c2cnco2)cc(-c2nn(-c3cc(N4CC[C@H](O)C4)ccc3C(F)(F)F)c(=O)c3c2CC(C)(C)C3)c1 [Example 6, 2-[5-((S)-3-hydroxy-pyrrolidin-1-yl)-2-trifluoromethyl-phenyl]-6,6-dimethyl-4-(3-methyl-5-oxazol-5-yl-phenyl)-2,5,6,7-tetrahydro-cyclopenta[d]pyridazin-1-one]",< 100
28,"COc1cc(OC)cc(-c2nn(-c3cc(N4CCC(O)C4)ccc3C(F)(F)F)c(=O)c3c2CCN3)c1 (centres unmarked) [Example 18, 4-(3,5-dimethoxyphenyl)-6-[5-(3-hydroxy-pyrrolidin-1-yl)-2-trifluoromethyl-phenyl]-1,2,3,6-tetrahydro-pyrrolo[2,3-d]pyridazin-7-one]",< 100
29,"COc1cc(OC)cc(-c2nn(-c3cc(N4CC[C@H](O)C4)ccc3C(F)(F)F)c(=O)c3c2CCC3)c1 [Example 9, 4-(3,5-dimethoxy-phenyl)-2-[5-((S)-3-hydroxy-pyrrolidin-1-yl)-2-trifluoromethyl-phenyl]-2,5,6,7-tetrahydro-cyclopenta[d]pyridazin-1-one]",< 100
